Values joined by “and” are separate entries in the source; they are usually repeats but may differ in a detail not shown here. Equal values may be shown once. Toxic doses and inconclusive results are not listed. Rule for the calls: active = survival T/C of 150% or more; inactive = T/C below 125% in these data. Square brackets hold non-standard residues; d marks the D form. Peptide text beside a SMILES is read from it. * marks the point of attachment. ξ: configuration not given here. Ac5c = NC1(C(=O)O)CCCC1; ξS = NC(CO)C(=O)O; For = O=C*
System: P388 leukemia ip, CD2F1 mice, survival T/C
Experiment: NCI In Vivo Anticancer Drug Screen. Data for tumor model P388 Leukemia (intraperitoneal) in CD2F1 (CDF1) mice
Conditions: endpoint: median survival time, higher = longer survival
In short: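 Mice carrying the transplanted tumor received test compound or vehicle. Survival was recorded in each group, and the value is the treated-group measurement divided by that of the vehicle-treated control group.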

[1] = dose: 100.0 mg/kg/injection, schedule: Q04DX003 (ip), vehicle: saline with Tween-80
[2] = dose: 200.0 mg/kg/injection, schedule: Q04DX003 (ip), vehicle: saline with Tween-80
[3] = dose: 400.0 mg/kg/injection, schedule: Q04DX003 (ip), vehicle: saline with Tween-80
[4] = dose: 50.0 mg/kg/injection, schedule: Q01DX005 (ip), vehicle: Klucel (hydroxypropylcellulose) (HPC)
[5] = dose: 100.0 mg/kg/injection, schedule: Q01DX005 (ip), vehicle: Klucel (hydroxypropylcellulose) (HPC)
[6] = dose: 6.25 mg/kg/injection, schedule: Q01DX005 (ip), vehicle: saline with Tween-80
[7] = dose: 12.5 mg/kg/injection, schedule: Q01DX005 (ip), vehicle: saline with Tween-80
[8] = dose: 25.0 mg/kg/injection, schedule: Q01DX005 (ip), vehicle: saline with Tween-80
[9] = dose: 50.0 mg/kg/injection, schedule: Q01DX005 (ip), vehicle: saline with Tween-80
[10] = dose: 100.0 mg/kg/injection, schedule: Q01DX005 (ip), vehicle: saline with Tween-80
[11] = dose: 200.0 mg/kg/injection, schedule: Q01DX005 (ip), vehicle: saline with Tween-80
[12] = dose: 50.0 mg/kg/injection, schedule: Q01DX009 (ip), vehicle: saline
[13] = dose: 60.0 mg/kg/injection, schedule: Q01DX005 (ip), vehicle: saline with Tween-80
[14] = dose: 120.0 mg/kg/injection, schedule: Q01DX005 (ip), vehicle: saline with Tween-80
[15] = dose: 240.0 mg/kg/injection, schedule: Q01DX005 (ip), vehicle: saline with Tween-80

Measured: T/C

Cc1cccc(N2CCN(S(C)(=O)=O)CC2)c1
inactive: [1] 101 % of control | [2] 102 % of control | [3] 110 % of control

CC(=O)NC(c1nc2cc(C)c(C)cc2[nH]1)c1nc2cc(C)c(C)cc2[nH]1
inactive: [4] 101 % of control | [5] 106 % of control | dose: 200.0 mg/kg/injection, schedule: Q01DX005 (ip), vehicle: Klucel (hydroxypropylcellulose) (HPC) 110 % of control

O=C1[N-]C(=S)c2cccn21.O=C1[N-]C(=S)c2cccn21.[Pt+2]
inactive: [6] 104 % of control | [7] 107 % of control | [8] 105 % of control | [9] 105 % of control

O=C1NC(=O)c2cc(C(F)(F)F)ccc21
inactive: dose: 3.0 mg/kg/injection, schedule: Q01DX009 (ip), vehicle: saline with Tween-80 95 % of control | dose: 6.0 mg/kg/injection, schedule: Q01DX009 (ip), vehicle: saline with Tween-80 104 % of control | dose: 12.0 mg/kg/injection, schedule: Q01DX009 (ip), vehicle: saline with Tween-80 90 % of control

O=S(=O)(SC(S(=O)(=O)c1ccccc1)S(=O)(=O)c1ccccc1)c1ccccc1
inactive: dose: 200.0 mg/kg/injection, schedule: Q01DX009 (ip), vehicle: Klucel (hydroxypropylcellulose) (HPC) 123 % of control | dose: 400.0 mg/kg/injection, schedule: Q01DX009 (ip), vehicle: Klucel (hydroxypropylcellulose) (HPC) 123 % of control

CC(C)CCCCCCCCCCCCC(=O)NC1C(C)OC(Nc2ncnc3nc[nH]c23)C(O)C1O (stereo not given)
inactive: dose: 0.5 mg/kg/injection, schedule: Q01DX009 (ip), vehicle: other 107 % of control | dose: 1.0 mg/kg/injection, schedule: Q01DX009 (ip), vehicle: other 109 % of control | dose: 2.0 mg/kg/injection, schedule: Q01DX009 (ip), vehicle: other 98 % of control | dose: 4.0 mg/kg/injection, schedule: Q01DX009 (ip), vehicle: other 106 % of control | dose: 6.25 mg/kg/injection, schedule: Q01DX009 (ip), vehicle: other 104 % of control | dose: 8.0 mg/kg/injection, schedule: Q01DX009 (ip), vehicle: other 106 % of control | dose: 12.5 mg/kg/injection, schedule: Q01DX009 (ip), vehicle: other 91 % of control | dose: 25.0 mg/kg/injection, schedule: Q01DX009 (ip), vehicle: other 88 % of control | dose: 50.0 mg/kg/injection, schedule: Q01DX009 (ip), vehicle: other 91 % of control

CSCCC(NC(=O)C(Cc1ccccc1)NC=O)C(=O)O (stereo not drawn) (For-Phe-Met-OH; configuration not given here)
inactive: [9] 108 % of control | [10] 103 % of control | [11] 104 % of control

CCn1cnc2c(SC)ncnc21
inactive: dose: 12.5 mg/kg/injection, schedule: Q01DX009 (ip), vehicle: saline 100 % of control | dose: 25.0 mg/kg/injection, schedule: Q01DX009 (ip), vehicle: saline 100 % of control | [12] 95 % of control | dose: 100.0 mg/kg/injection, schedule: Q04DX003 (ip), vehicle: other 100 % of control

c1ccc(CN2CO[C@@H]3CCCCC[C@H]32)cc1
inactive: dose: 100.0 mg/kg/injection, schedule: Q01DX001 (ip), vehicle: Klucel (hydroxypropylcellulose) (HPC) 101 % of control | dose: 100.0 mg/kg/injection, schedule: Q04DX002 (ip), vehicle: Klucel (hydroxypropylcellulose) (HPC) 99 % of control | dose: 200.0 mg/kg/injection, schedule: Q01DX001 (ip), vehicle: Klucel (hydroxypropylcellulose) (HPC) 102 % of control | dose: 200.0 mg/kg/injection, schedule: Q04DX002 (ip), vehicle: Klucel (hydroxypropylcellulose) (HPC) 115 % of control | dose: 400.0 mg/kg/injection, schedule: Q01DX001 (ip), vehicle: Klucel (hydroxypropylcellulose) (HPC) 98 % of control | dose: 400.0 mg/kg/injection, schedule: Q04DX002 (ip), vehicle: Klucel (hydroxypropylcellulose) (HPC) 124 % of control

NC(CO)C(=O)NC1(C(=O)O)CCCC1 (stereo not given) (H-[ξS]-[Ac5c]-OH)
inactive: [1] 95 % of control | [2] 100 % of control | [3] 120 % of control

CNC(C)C#N (stereo not given)
inactive: dose: 3.75 mg/kg/injection, schedule: Q01DX005 (ip), vehicle: saline 94 % of control | dose: 7.5 mg/kg/injection, schedule: Q01DX005 (ip), vehicle: saline 100 % of control | dose: 15.0 mg/kg/injection, schedule: Q01DX005 (ip), vehicle: saline 102 % of control

Cc1cc(N2CCOCC2)nc(N2CCOCC2)c1C#N
inactive: [6] 100 % of control | [7] 108 % of control | [8] 99 % of control

C1=Cc2ccccc2/C1=C/c1cc2c3c(c1)CCCN3CCC2
inactive: dose: 60.0 mg/kg/injection, schedule: Q01DX005 (ip), vehicle: Klucel (hydroxypropylcellulose) (HPC) 95 % of control | dose: 120.0 mg/kg/injection, schedule: Q01DX005 (ip), vehicle: Klucel (hydroxypropylcellulose) (HPC) 91 % of control | dose: 240.0 mg/kg/injection, schedule: Q01DX005 (ip), vehicle: Klucel (hydroxypropylcellulose) (HPC) 92 % of control

Cc1nn(C23CC4CC(CC(C4)C2)C3)c(C(Cl)Cl)c1Cl
inactive: [13] 100 % of control | [14] 94 % of control | [15] 94 % of control

O=C(O)[C@@H]1C[C@@H](O)CN1
inactive: [12] 96 % of control | dose: 100.0 mg/kg/injection, schedule: Q01DX009 (ip), vehicle: saline 96 % of control | dose: 200.0 mg/kg/injection, schedule: Q01DX009 (ip), vehicle: saline 100 % of control

CN1C(c2ccccc2)=C(C#N)C(=O)CC(c2ccccc2)N1C (stereo not given)
inactive: dose: 5.0 mg/kg/injection, schedule: Q01DX005 (ip), vehicle: saline with Tween-80 102 % of control | dose: 10.0 mg/kg/injection, schedule: Q01DX005 (ip), vehicle: saline with Tween-80 105 % of control | dose: 20.0 mg/kg/injection, schedule: Q01DX005 (ip), vehicle: saline with Tween-80 102 % of control | dose: 40.0 mg/kg/injection, schedule: Q01DX005 (ip), vehicle: saline with Tween-80 102 % of control | [9] 101 % of control | [13] 120 % of control | [10] 93 % of control | [14] 103 % of control | [11] 104 % of control | [15] 94 % of control

CCn1c(=O)n(Cc2ccccc2)c(=O)c2ccccc21
inactive: [13] 93 % of control | [14] 93 % of control | [15] 91 % of control

CN(CCc1ccccn1)c1ccc2c(c1)Cc1ccccc1-2
inactive: [4] 98 % of control | [5] 93 % of control

CCCCC1CCCCCCc2[nH]c(/C=C3\N=C(c4ccc[nH]4)C=C3OC)cc21 (stereo not given)
inactive: dose: 0.12 mg/kg/injection, schedule: Q01DX009 (ip), vehicle: saline with Tween-80 109 % of control and 116 % of control | dose: 0.25 mg/kg/injection, schedule: Q01DX009 (ip), vehicle: saline with Tween-80 110 % of control and 119 % of control | dose: 0.5 mg/kg/injection, schedule: Q01DX009 (ip), vehicle: saline with Tween-80 115 % of control and 123 % of control | dose: 1.0 mg/kg/injection, schedule: Q01DX009 (ip), vehicle: saline with Tween-80 111 % of control and 90 % of control

Nc1nc(SCC(=O)O)[nH]c(=O)c1N
inactive: [9] 91 % of control | [10] 104 % of control | [11] 104 % of control

NC1C(NO)OC(CO)C(O)C1O (stereo not given)
inactive: dose: 50.0 mg/kg/injection, schedule: Q01DX005 (ip), vehicle: saline 97 % of control | dose: 100.0 mg/kg/injection, schedule: Q01DX005 (ip), vehicle: saline 96 % of control | dose: 200.0 mg/kg/injection, schedule: Q01DX005 (ip), vehicle: saline 97 % of control
